Common to all, as to format: cell-based, human
Experiment [1] deals with Aβ1–40 peptide secretion. The experiment in a line: Aβ1–40 secretion in cell medium by ELISA. In short, it runs like this:
(§1)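 SY5Y-APP^WT cells (SH-SY5Y human neuroblastoma stably expressing human wild-type APP695) were treated with compounds for 24 h in supplemented DMEM at 37 °C. Secreted Aβ1–40 and Aβ1–42 were quantified in the collected, centrifuged conditioned medium by ELISA, in pg/mL.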
Background: ELISA stands for enzyme-linked immunosorbent assay.

The subject of experiment [2] is Aβ1–42 peptide secretion. In words: Aβ1–42 secretion in cell medium by ELISA. Particulars: SY5Y-APP^WT cells, 24 h treatment, mean ± SD of at least three experiments in triplicate. In short, it runs like this: as §1
Experiment [3] deals with p62. The experiment in a line: Autophagic flux: p62 expression by Western blot. As to conditions: 24 h, compound at 3 µM, SY5Y-APP^wt cells, vs control; for fold induction at 3 µM: Homo sapiens. An excerpt:
Previous work dedicated to compounds of family C [22] has underlined the effect of our compounds on autophagic flux and the lysosomal degradation pathways. More precisely, the role of the amino side chains and their number was highlighted. Therefore, we assessed whether the activity of compounds involved the modulation of lysosomal activities toward the accumulation of APP-CTFs and AICD. Thus, we studied the effect of a selection of compounds on the autophagic flux, more particularly, we evaluated the effect of compounds 24, 33, 34, 57, 65, 67, 70, and 71 on two markers associated with autophagy: p62 and LC3-I lipidation into LC3-II. To the previous selection of efficient compounds decreasing Aβ1–x production and increasing CTFα and AICD, we added compound 65 with no cytotoxicity at 100 µM. As a comparison, we also selected compound 57 with a hydroxymethyl substituent as a control. In addition to CQ, bafilomycin A, a well-known inhibitor of autophagic flux, was used as a control. Treatment with compounds 67 and 71 induced an increase in p62 expression by 2.5 and 4-fold, respectively, compared to the control condition (Figure 3). […] An increase in the two markers was also observed with compound 57, but to a smaller extent (1.7-fold for p62 and 2-fold for LC3-I/LC3-II).
(§2) The human neuroblastoma cell line SY5Y-APP^695WT was maintained in Dulbecco’s modified Eagle medium (DMEM, high glucose, pyruvate—GIBCO, Life Technologies, Carlsbad, CA, USA) supplemented with 10% fetal bovine serum, 2 mM L-glutamine, 1 mM non-essential amino acids and penicillin/streptomycin (GIBCO, Life Technologies, Carlsbad, CA, USA) at 37 °C in a 5% CO2 humidified incubator [36]. For compound treatment, a 10 mM stock solution was diluted in freshly supplemented DMEM medium to obtain the precise final concentration of the drug. Cells were plated at a density of 5 × 10^5 cells per well into 12-well plates and cultured with 1 mL supplemented DMEM cell medium for 24 h before compound exposure. The following day, the cell medium was replaced with fresh medium containing the compounds diluted at the indicated concentrations. Cells were treated for 24 h. At the end of the treatments, the cell medium was collected and kept at −80 °C until use, cells were rinsed once with PBS and extracted in 100 µL of Laemmli buffer (10 mM Tris, 20% glycerol, and 2% sodium dodecyl sulfate) using a cell-scraper. The cell lysate was further sonicated (30 pulses of 0.5 s, 60 Hz) for 5 min. Total protein concentration was determined using the Pierce BCA Protein Assay Kit (Thermo Scientific, Waltham, MA, USA) according to the manufacturer’s instructions. Samples were stored at −80 °C until analysis.
Cell protein lysates were prepared for Western blot analysis by diluting the sample with 1 volume of NuPAGE® lithium dodecyl sulfate (LDS) 2X sample buffer supplemented with 20% NuPAGE® sample reducing agents (Invitrogen). Samples were heated for 10 min at 100 °C. Ten µg of total proteins per well were loaded onto precast 4–12% Criterion XT Bis-Tris polyacrylamide gels (Bio-Rad) and electrophoresis was achieved after applying a tension of 150 V for 90 min using a Criterion electrophoresis cell with the NuPAGE® MOPS SDS running buffer (1X). Proteins were transferred to a nitrocellulose membrane of […] pore size (G&E Healthcare, Madison, WI, USA) using the Criterion blotting system and applying a tension of 100 V for 45 min. To resolve proteins of low molecular weights such as carboxy-terminal fragments of APP, 12% Criterion XT Bis-Tris polyacrylamide gels (Bio-Rad, Hercules, CA, USA) were used, and electrophoresis was performed for 70 min at 150 V in a NuPAGE® MES SDS running buffer (1X). Proteins were transferred to a nitrocellulose membrane of 0.2 µm pore size (G&E Healthcare, Madison, WI, USA) at 100 V for 40 min. Molecular weight calibration was achieved using molecular weight markers (Novex and Magic Marks, Life Technologies, Carlsbad, CA, USA). […]
(A western blot detects proteins with antibodies after separation by electrophoresis.)

Experiment [4] concerns sAPPβ secretion. In words: sAPPβ secretion (MSD sAPPα/sAPPβ Multiplex Kit). As to conditions: SY5Y cells, mean ± SD of at least three experiments in triplicate. The method, then: A selection of compounds with several selected activities was performed including sAPPα and sAPPβ, which were further explored. […] The decrease in Aβ could result from a decrease in either β- or γ-secretase cleavage or an increase in the α-secretase cleavage of APP. Thus, medium concentrations of sAPPβ and sAPPα, which are the β- and α-secretase extramembrane shed APP fragments, were determined after cell drug treatments.
as §2
Conditioned media of SY5Y-APP^695WT collected at the end of treatments were centrifuged at 1000× g for 5 min to eliminate cell debris.
Aβ1–40/Aβ1–42 peptides, Aβx–38/Aβx–40/Aβx–42, and sAPPα/sAPPβ concentrations in pg/mL were determined, respectively, using amyloid-beta 40 and 42 Human ELISA Kits (Invitrogen), the V-PLEX Plus Aβ Peptide Panel 1 (4G8) Kit (Meso Scale Diagnostics, MSD R©, Rockville, MD, USA), and the sAPPα/sAPPβ Multiplex Kit (Meso Scale Diagnostics, MSD R©, Rockville, MD, USA) according to the manufacturer’s instructions.

[5] abbreviates: Homo sapiens, Aβ1–40 and Aβ1–42 not distinguished, read-out: IC50 for Aβ secretion (Aβ1–x production).
The mark [6] stands for this setting: Homo sapiens, SY5Y-APP^WT cells, 24 h treatment, mean ± SD of at least three experiments in triplicate, read-out: Aβ1–40 IC50.

Where two headings read alike, the source gives them in different places.

As to `Cc1cn(-c2cccc(CN(C)C)c2)nc1-c1ccc(CN(C)CCCN(C)C)cc1` [Compound 67, {[4-(1-{3-[(Dimethylamino)methyl]phenyl}-4-methyl-1H-pyrazol-3-yl)phenyl]methyl} [3-(Dimethylamino)propyl]methylamine], the IC50 in experiment [1] (setting [5]) is roughly 1000 nM; in experiment [1] (setting [6]), 1300 ± 100 nM; in experiment [2] (Homo sapiens) it was 2100 ± 500 nM; in experiment [4] (Homo sapiens) it was 3200 ± 1400 nM. This molecule displayed a fold induction at 3 µM in experiment [3] of 2.5.
On to `CN(C)CCCc1ccc(-c2nn(-c3ccc(CN(C)C)cc3)cc2CN(C)C)cc1` [Compound 24, 3-[4-[4-(Dimethylaminomethyl)-1-[4-(dimethylaminomethyl)phenyl] Pyrazol-3-yl]phenyl]-N,N-dimethyl-propan-1-amine], for which the half-inhibitory concentration (IC50) in experiment [1] (setting [6]) amounted to 1500 ± 100 nM; in experiment [2] (Homo sapiens), 2500 ± 200 nM. This molecule showed a fold induction at 3 µM in experiment [3] of 1.64.
As to `Cc1cn(-c2cccc(CN3CCN(C)CC3)c2)nc1-c1cccc(CN(C)CCCN(C)C)c1` [Compound 71, N,N,N′-Trimethyl-N′-[[3-[4-methyl-1-[3-[(4-methylpiperazin-1-yl)methyl]phenyl]pyrazol-3-yl]phenyl]methyl]propane-1,3-diamine], the IC50 in experiment [1] (setting [5]) is roughly 1000 nM; in experiment [1] (setting [6]) it was 1200 ± 100 nM; in experiment [2] (Homo sapiens), 1700 ± 100 nM; in experiment [4] (Homo sapiens), 4000 ± 400 nM. The molecule further returned a fold induction at 3 µM in experiment [3] of 4.
On to `Cc1cn(-c2cccc(CN(C)C)c2)nc1-c1cccc(CN(C)CCCN(C)C)c1` [Compound 70, N′-[[3-[1-[3-(Dimethylaminomethyl)phenyl]-4-methyl-pyrazol-3-yl]phenyl] Methyl]-N,N,N′-trimethyl-propane-1,3-diamine], for which the results for the IC50 in experiment [1] (setting [6]) and in experiment [2] (Homo sapiens) were 1500 ± 100 nM and 2100 ± 100 nM, respectively. Moreover, in experiment [3], the fold induction at 3 µM is 3.
On the same counts, the results for `Cc1cn(-c2cccc(CN3CCN(C)CC3)c2)nc1-c1cccc(CN(C)C)c1` [Compound 65, N,N-dimethyl-1-[3-[4-methyl-1-[3-[(4-methylpiperazin-1-yl)methyl]phenyl]pyrazol-3-yl]phenyl]methanamine] are 2000 ± 700 nM, 2100 ± 400 nM and 1.64.
For the molecule “N′-[[4-[4-[3-(Dimethylamino)propyl]-3-[4-[3-(dimethylamino)propyl]phenyl] Pyrazol-1-yl]phenyl]methyl]-N,N,N′-trimethyl-propane-1,3-diamine [Compound 33]”, the IC50 in experiment [1] (SY5Y-APP^WT cells, 24 h treatment, mean ± SD of at least three experiments in triplicate, read-out: Aβ1–40 IC50) turned out to be 9200 ± 400 nM; in experiment [2], 9700 ± 1200 nM; in experiment [4] it was 6800 ± 300 nM. The same molecule showed a p62 in experiment [3] of 1.04 Fold-change.
For `Cc1cn(-c2cccc(CO)c2)nc1-c1ccc(CN(C)CCCN(C)C)cc1` [Compound 57, (3-{3-[4-({[3-(Dimethylamino)propyl](methyl)amino}methyl)phenyl]-4-methyl-1H-pyrazol-1-yl}phenyl)methanol], the IC50 in experiment [1] (setting [6]) came to 2900 ± 1000 nM; in experiment [2] (Homo sapiens) it was 3500 ± 800 nM. Also, the fold induction at 3 µM in experiment [3] turned out to be 1.7.

Broadly, the IC50 is the point on the concentration scale where inhibition reaches its midpoint. As usually defined, the fold induction is the signal under treatment as a multiple of the control signal. A low value points to little rise in signal.

These data come from publication PMC9658513, “Discovery of Compounds That Selectively Repress the Amyloidogenic Processing of the Amyloid Precursor Protein: Design, Synthesis and Pharmacological Evaluation of Diphenylpyrazoles” (International Journal of Molecular Sciences, 2022).
